Assay results: patent US10441587B2, “Treatment of lung cancer with inhibitors of glutaminase” (Calithera Biosciences, Inc., priority 2015, dated 2019)

Assays:
H358 (CALA) = experiment: Sensitivity of NSCLC cell line to CB-839; format: cell-based; conditions: KRAS G12C, no amp, EGFR wt, n 4
H1693 (CALA) = experiment: Sensitivity of NSCLC cell line to CB-839; format: cell-based; conditions: KRAS wt, no amp, EGFR wt, n 3
H23 (CALA) = experiment: Sensitivity of NSCLC cell line to CB-839; format: cell-based; conditions: KRAS G12C, AMP, EGFR wt, n 4
H2073 (CALA) = experiment: Sensitivity of NSCLC cell line to CB-839; format: cell-based; conditions: KRAS wt, no amp, EGFR wt, n 3
H1975 (CALA) = experiment: Sensitivity of NSCLC cell line to CB-839; format: cell-based; conditions: KRAS wt, no amp, EGFR L858R/T790M, n 4
H1703 (CALA) = experiment: Sensitivity of NSCLC cell line to CB-839; format: cell-based; conditions: KRAS wt, AMP, EGFR wt, n 4
[1] = test system: H2122 lung adenocarcinoma xenograft; experiment: Lung adenocarcinoma xenograft efficacy study; format: in vivo; conditions: H2122 xenograft in scid/beige mice; 200 mg/kg orally BID for 23 days; vs vehicle
Protocol: Female scid/beige mice (n═20) age 6-8 weeks were implanted subcutaneously with 1×10^7 H2122 lung adenocarcinoma cells per mouse suspended in PBS. Mice were randomized into the following two groups of n=10 mice/group: 1) Vehicle control (25% Hydroxypropyl-β-cyclodextrin) and 2) Compound 670 dosed orally at 200 mg/kg (formulated at 20 mg/mL in 25% HP-β-CD). For both groups, dosing was initiated 24 hours post-implant and continued orally BID for 23 days. Tumors were measured with calipers three times per week and tumor volume calculated using the formula tumor volume (mm^3)=(a×b^2/2) where ‘b’ is the smallest diameter and ‘a’ is the largest perpendicular diameter. **P-value<0.01 (Two-sided T-test).

H441 (CALA) = experiment: Sensitivity of NSCLC cell line to CB-839; format: cell-based; conditions: KRAS G13V, AMP, EGFR wt, n 3
ChaGo-K1 (CALA) = experiment: Sensitivity of NSCLC cell line to CB-839; format: cell-based; conditions: KRAS wt, no amp, EGFR wt, n 3
H2023 (CALA) = experiment: Sensitivity of NSCLC cell line to CB-839; format: cell-based; conditions: KRAS wt, no amp, EGFR wt, n 3
H1299 (CALA) = experiment: Sensitivity of NSCLC cell line to CB-839; format: cell-based; conditions: KRAS wt, no amp, EGFR wt, n 3
HCC827 (CALA) = experiment: Sensitivity of NSCLC cell line to CB-839; format: cell-based; conditions: KRAS wt, no amp, EGFR exon 19 deletion, n 3
H2122 (CALA) = experiment: Sensitivity of NSCLC cell line to CB-839; format: cell-based; conditions: KRAS G12C, no amp, EGFR wt, n 5
H647 (CALA) = experiment: Sensitivity of NSCLC cell line to CB-839; format: cell-based; conditions: KRAS G13D, no amp, EGFR wt, n 3
H226 (CALA) = experiment: Sensitivity of NSCLC cell line to CB-839; format: cell-based; conditions: KRAS wt, no amp, EGFR wt, n 4
H838 (CALA) = experiment: Sensitivity of NSCLC cell line to CB-839; format: cell-based; conditions: KRAS wt, AMP, EGFR wt, n 3
H1563 (CALA) = experiment: Sensitivity of NSCLC cell line to CB-839; format: cell-based; conditions: KRAS wt, no amp, EGFR wt, n 4
H661 (CALA) = experiment: Sensitivity of NSCLC cell line to CB-839; format: cell-based; conditions: KRAS wt, AMP, EGFR wt, n 3
H2085 (CALA) = experiment: Sensitivity of NSCLC cell line to CB-839; format: cell-based; conditions: KRAS wt, no amp, EGFR no data, n 3
H2030 (CALA) = experiment: Sensitivity of NSCLC cell line to CB-839; format: cell-based; conditions: KRAS G12C, no amp, EGFR wt, n 3
[2] = test system: non-small cell lung cancer cell lines exhibiting a KRAS mutation; experiment: Sensitivity of non-small cell lung cancer cell lines by mutation status; format: cell-based; conditions: KRAS-mutant vs wild-type non-small cell lung cancer cell lines; arrested growth and/or cell death
H1437 (CALA) = experiment: Sensitivity of NSCLC cell line to CB-839; format: cell-based; conditions: KRAS wt, no amp, EGFR wt, n 3
H1568 (CALA) = experiment: Sensitivity of NSCLC cell line to CB-839; format: cell-based; conditions: KRAS wt, no amp, EGFR wt, n 4
H1650 (CALA) = experiment: Sensitivity of NSCLC cell line to CB-839; format: cell-based; conditions: KRAS wt, no amp, EGFR exon 19 deletion, n 1
H2347 (CALA) = experiment: Sensitivity of NSCLC cell line to CB-839; format: cell-based; conditions: KRAS L19F, no amp, EGFR wt, n 3
A549 (CALA) = experiment: Sensitivity of NSCLC cell line to CB-839; format: cell-based; conditions: KRAS G12S, no amp, EGFR wt, n 2

For `O=C(Cc1cccc(OC(F)(F)F)c1)Nc1ccc(CCCCc2nnc(NC(=O)Cc3ccccn3)s2)nn1` [compound 670], the “Sensitivity to CB-839 average” value (H358 (CALA)) was −34, the “Sensitivity to CB-839 average” value (H1693 (CALA)) was 82.67 and the “Sensitivity to CB-839 average” value (H23 (CALA)) was −13. The “Sensitivity to CB-839 average” value (H2073 (CALA)) was 57.67, the “Sensitivity to CB-839 average” value (H1975 (CALA)) was 22.225 and the “Sensitivity to CB-839 average” value (H1703 (CALA)) was −10. The tumor size [1] was “reduced tumor size”, the “Sensitivity to CB-839 average” value (H441 (CALA)) was −2.67 and the “Sensitivity to CB-839 average” value (ChaGo-K1 (CALA)) was 86. The “Sensitivity to CB-839 average” value (H2023 (CALA)) was −47, the “Sensitivity to CB-839 average” value (H1299 (CALA)) was 68.67 and the “Sensitivity to CB-839 average” value (HCC827 (CALA)) was −9. The “Sensitivity to CB-839 average” value (H2122 (CALA)) was −28.637, the “Sensitivity to CB-839 average” value (H647 (CALA)) was 18.267 and the “Sensitivity to CB-839 average” value (H226 (CALA)) was 38.75. For the same compound, the “Sensitivity to CB-839 average” value (H838 (CALA)) was 82, the “Sensitivity to CB-839 average” value (H1563 (CALA)) was 61.5 and the “Sensitivity to CB-839 average” value (H661 (CALA)) was 1.33. The “Sensitivity to CB-839 average” value (H2085 (CALA)) was 80.667, the “Sensitivity to CB-839 average” value (H2030 (CALA)) was −30 and the “sensitivity to treatment versus wild-type cell lines” value [2] was “more sensitive”. For the same compound, the “Sensitivity to CB-839 average” value (H1437 (CALA)) was 8.33, the “Sensitivity to CB-839 average” value (H1568 (CALA)) was −38 and the “Sensitivity to CB-839 average” value (H1650 (CALA)) was 19. The “Sensitivity to CB-839 average” value (H2347 (CALA)) was −14 and the “Sensitivity to CB-839 average” value (A549 (CALA)) was −68.565.
